Consider 27 molecules from patent US8338465B2, “Cyclic carboxylic acid rhodanine derivatives for the treatment and prevention of tuberculosis” (priority 2006, dated 2012).

Some results are limits rather than exact numbers.

For this assay, the target named is T1, dihydrolipoamide acyltransferase (DlaT) (Mycobacterium tuberculosis, UniProt P9WIS7).
T1 sequence (P9WIS7 1-553): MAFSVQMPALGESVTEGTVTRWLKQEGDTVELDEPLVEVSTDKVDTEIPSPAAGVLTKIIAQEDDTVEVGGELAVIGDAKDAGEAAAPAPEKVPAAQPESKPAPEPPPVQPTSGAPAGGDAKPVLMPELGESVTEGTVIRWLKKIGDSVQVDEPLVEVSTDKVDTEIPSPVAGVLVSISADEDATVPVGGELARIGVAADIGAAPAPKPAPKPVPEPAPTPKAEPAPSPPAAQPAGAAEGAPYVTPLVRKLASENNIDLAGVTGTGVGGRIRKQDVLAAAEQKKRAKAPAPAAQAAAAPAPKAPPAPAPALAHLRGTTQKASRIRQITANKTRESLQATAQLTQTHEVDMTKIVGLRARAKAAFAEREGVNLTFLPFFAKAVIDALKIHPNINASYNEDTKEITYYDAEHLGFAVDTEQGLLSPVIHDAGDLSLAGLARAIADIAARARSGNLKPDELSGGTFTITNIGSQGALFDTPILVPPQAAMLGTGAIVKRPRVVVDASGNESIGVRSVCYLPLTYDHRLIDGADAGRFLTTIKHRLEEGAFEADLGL
As to the kind of experiment: DlaT inhibition (Dlat IC50); DTNB peroxidase assay with Lpd, DlaT and AhpD. Format: biochemical. The note with it: Dlat IC50 category.
One may read the IC50 as the concentration needed to halve the response being measured. Read a high IC50 as weaker potency in that assay. Molecule `O=C(O)C(Cc1ccc(O)c(O)c1)N1C(=O)C(=Cc2ccc(-c3ccc(Cl)cc3)o2)SC1=S` (stereo not drawn) [Compound B56] had an IC50 of 11 to 40 µM.
Turning to `O=C(O)C(Cc1ccccc1)N1C(=O)C(=Cc2ccc(-c3ccc(Cc4ccccc4)cc3)o2)SC1=S` (stereo not drawn) [Compound B57], the IC50 is < 10 µM.
Under `O=C(O)C(Cc1ccc(O)cc1)N1C(=O)C(=Cc2ccc(-c3ccc(Cc4ccccc4)cc3)o2)SC1=S` (stereo not drawn) [Compound B58] stands < 10 µM; under `O=C(O)C(Cc1ccc(O)c(O)c1)N1C(=O)C(=Cc2ccc(-c3ccc(Cc4ccccc4)cc3)o2)SC1=S` (stereo not drawn) [Compound B59], < 10 µM; under `O=C(O)CN1C(=O)C(=Cc2ccc(-c3ccc(Cl)cc3)o2)SC1=S` [Compound B60], 11 to 40 µM.
For `O=C(O)CN1C(=O)C(=Cc2ccc(-c3cc(C(F)(F)F)ccc3Cl)o2)SC1=S` [Compound B61], the half-inhibitory concentration (IC50) was < 10 µM.
Under `O=C(O)C(Cc1ccc(O)cc1)N1C(=O)C(=Cc2ccc(-c3cc(Cl)ccc3Cl)o2)SC1=S` (stereo not drawn) [Compound B62] stands < 10 µM; under `O=C(O)C(Cc1ccc(O)cc1)N1C(=O)C(=Cc2ccc(-c3cc(C(F)(F)F)ccc3Cl)o2)SC1=S` (stereo not drawn) [Compound B63], < 10 µM; under `O=C(O)C(Cc1ccc(O)c(O)c1)N1C(=O)C(=Cc2ccc(-c3cc(Cl)ccc3Cl)o2)SC1=S` (stereo not drawn) [Compound B64], < 10 µM.
Under `O=C(O)C(Cc1ccc(O)c(O)c1)N1C(=O)C(=Cc2ccc(-c3cc(C(F)(F)F)ccc3Cl)o2)SC1=S` (stereo not drawn) [Compound B65] stands < 10 µM; under `CC(C)c1ccc(-c2ccc(C=C3SC(=S)N(C(C(=O)O)c4ccccc4)C3=O)o2)cc1` (stereo not drawn) [Compound B66], < 10 µM.
For the molecule `CC(C)c1ccc(-c2ccc(C=C3SC(=S)N(C(Cc4ccccc4)C(=O)O)C3=O)o2)cc1` (stereo not drawn) [Compound B67], the half-inhibitory concentration (IC50) was < 10 µM.
With `CC(C)c1ccc(-c2ccc(C=C3SC(=S)N(C(Cc4ccc(O)c(O)c4)C(=O)O)C3=O)o2)cc1` (stereo not drawn) [Compound B68], the concentration for half-maximal inhibition (IC50) is < 10 µM.
`O=C(O)CN1C(=O)C(=Cc2ccc(-c3ccc(C(=O)c4ccccc4)cc3)o2)SC1=S` [Compound B69] had a half-inhibitory concentration (IC50) of 11 to 40 µM.
Under `CC(C)c1ccc(-c2ccc(C=C3SC(=S)N(CC(=O)O)C3=O)o2)cc1` [Compound B70] stands 11 to 40 µM.
Under `O=C(O)CN1C(=O)C(=Cc2ccc(-c3ccc(CSc4ccccc4)cc3)o2)SC1=S` [Compound B71] stands 11 to 40 µM.
On to `CC(C)c1cccc(-c2ccc(C=C3SC(=S)N(CC(=O)O)C3=O)o2)c1` [Compound B72], for which the concentration for half-maximal inhibition (IC50) is < 10 µM.
Regarding `O=C(O)CN1C(=O)C(=Cc2ccc(-c3ccc(C4CCCCC4)cc3)o2)SC1=S` [Compound B73], the half-maximal inhibitory concentration (IC50) was < 10 µM.
Under `CC(C)(C)c1ccc(-c2ccc(C=C3SC(=S)N(CC(=O)O)C3=O)o2)cc1` [Compound B74] stands < 10 µM; under `CC(C)c1cccc(-c2ccc(C=C3SC(=S)N(C(Cc4ccccc4)C(=O)O)C3=O)o2)c1` (stereo not drawn) [Compound B75], < 10 µM; under `O=C(O)C(Cc1ccccc1)N1C(=O)C(=Cc2ccc(-c3ccc(CSc4ccccc4)cc3)o2)SC1=S` (stereo not drawn) [Compound B76], < 10 µM.
`CC(C)Cc1ccc(-c2ccc(C=C3SC(=S)N(CC(=O)O)C3=O)o2)cc1` [Compound B77]: the half-maximal inhibitory concentration (IC50) is < 10 µM.
Under `CC(C)Cc1ccc(-c2ccc(C=C3SC(=S)N(C(C(=O)O)c4ccccc4)C3=O)o2)cc1` (stereo not drawn) [Compound B78] stands < 10 µM.
Under `O=C(O)CN1C(=O)C(=Cc2ccc(-c3ccc(Cc4ccc(Cl)cc4)cc3)o2)SC1=S` [Compound B79] stands < 10 µM; under `O=C(O)CN1C(=O)C(=Cc2ccc(-c3ccc(C4CCCC4)cc3)o2)SC1=S` [Compound B81], < 10 µM.
Under `C=C(c1ccccc1)c1ccc(-c2ccc(C=C3SC(=S)N(CC(=O)O)C3=O)o2)cc1` [Compound B82] stands < 10 µM.
Molecule `CN(C)c1ccc(-c2ccc(C=C3SC(=S)N(CC(=O)O)C3=O)o2)cc1` [Compound B84] came in with an IC50 of 11 to 40 µM.
